# Source: patent publication US20120128665A1, “PRESELECTION OF SUBJECTS FOR THERAPEUTIC TREATMENT BASED ON HYPOXIC STATUS” (SYNTA PHARMACEUTICALS CORP., priority 2010, published 2012)
# Where two headings read alike, the source gives them in different places.
# Key:
# [1] = tested on: breast cancer; settings: xenograft models; cited from earlier work
# [2] = tested on: advanced pancreatic cancer; settings: Phase II, combination with Gemcitabine; cited from earlier work
# [3] = tested on: advanced pancreatic cancer; settings: Phase III, combination with Gemcitabine; cited from earlier work
# [4] = tested on: previously treated metastatic renal cell carcinoma (mRCC); settings: Phase III, 2010; cited from earlier work
# [5] = tested on: HCT116 tumors vs 786O tumors; experiment: response of hypoxic vs non-hypoxic tumors; assay type: in vivo, nude mice; settings: doses as in the 3rd table
# [6] = biological target: mTORC1 (Homo sapiens, UniProt P42345); settings: immune-kinase assays; cited from earlier work
# [7] = biological target: mTORC2 (Homo sapiens, UniProt P42345); settings: immune-kinase assays; cited from earlier work
# [8] = tested on: phosphorylated RPS6 (ribosomal protein S6); settings: TSC1-deficient cells; cited from earlier work
# [9] = tested on: HCT116 human colon carcinoma xenograft; experiment: HCT116 xenograft model (hypoxic tumor); assay type: in vivo, nude mice
# Description: (§1) Human tumor cell lines HCT116 (ATCC #CRL-247; Schroy PC, et al. Cancer 76:201-209, 1995) and 786-O (ATCC #CRL-1932; Williams RD, et al. In Vitro 12:623-627, 1976), were obtained from the American Type Culture Collection (Manassus, Va., USA) were cultured using routine methods until a sufficient number of cells were obtained for implantation. Studies were conducted on animals between 7 and 12 weeks of age at implantation. To implant HCT116 tumor cells into nude mice, the cells were trypsinized, washed in PBS and resuspended at a concentration of 75×10^6 cells/ml in McCoy's modified medium with 50% of BD Matrigel® Basement Membrane Matrix (BD Biosciences®, Bedford, Mass., USA). To implant 786-O tumor cells into nude mice, the cells were trypsinized as above, washed in PBS and resuspended at a concentration of 75×10^6 cells/ml in RPMI 1640 medium with 50% of BD Matrigel® Basement Membrane Matrix. Using a 27 gauge needle and 1 cc syringe, 0.1 ml of the cell suspension was injected into the corpus adiposum of nude mice. The corpus adiposum is a fat body located in the ventral abdominal vicera in the right quadrant of the abdomen at the juncture of the os coxae (pelvic bone) and the os femoris (femur). The location permits palpation and measurement of the tumors using external calipers. Tumor volumes (V) were calculated by caliper measurement of the width (W), length (L) and thickness (T) of tumors using the following formula: V=0.5236×(L×W×T). Animals were randomized into treatment groups so that the average tumor volumes of each group were similar at the start of dosing.
# (§2) A tumor model in which the tumors have relatively high and low levels of LDH5, indicating high and low levels of hypoxia, using human tumor cell lines HCT116 and 786-O was established as set forth in the previous example.
# (§3) As above, HCT116 and 786-O cells were cultured and implanted into nude mice using the methods in the previous example. Tumor growth was measured using calipers. Prior to treatment with the various agents, tumors were permitted to develop in vivo until they reached approximately 150 mm^3 in volume, which typically required 2-3 weeks following implantation. Animals were randomized into treatment groups so that the average tumor volumes of each group were similar at the start of dosing.
# (§4) Tumor volume was monitored throughout the course of the study, until up to about 40 days from the date of tumor implantation. The exact number of days of the study depended on a number of factors including, for example, the number of days from implantation for the tumors to reach the desired volume.
# [10] = tested on: 786-O human renal carcinoma xenograft; experiment: 786-O xenograft model (non-hypoxic tumor); assay type: in vivo, nude mice
# Description: as §1, §2, §3, §4
# [11] = tested on: metastatic colorectal cancer (mCRC); settings: cited from earlier work
# [12] = tested on: mCRC pretreated with 5-FU/irinotecan; settings: cited from earlier work
# [13] = tested on: metastatic colorectal cancer (mCRC); settings: P <0.001, cited from earlier work
# [14] = tested on: pancreatic cancer; settings: PTK787 and gemcitabine, cited from earlier work
# [15] = biological target: JAK2V617F (Homo sapiens, UniProt O60674, V617F); settings: cited from earlier work
# Chain of JAK2V617F (O60674 whole entry V617F): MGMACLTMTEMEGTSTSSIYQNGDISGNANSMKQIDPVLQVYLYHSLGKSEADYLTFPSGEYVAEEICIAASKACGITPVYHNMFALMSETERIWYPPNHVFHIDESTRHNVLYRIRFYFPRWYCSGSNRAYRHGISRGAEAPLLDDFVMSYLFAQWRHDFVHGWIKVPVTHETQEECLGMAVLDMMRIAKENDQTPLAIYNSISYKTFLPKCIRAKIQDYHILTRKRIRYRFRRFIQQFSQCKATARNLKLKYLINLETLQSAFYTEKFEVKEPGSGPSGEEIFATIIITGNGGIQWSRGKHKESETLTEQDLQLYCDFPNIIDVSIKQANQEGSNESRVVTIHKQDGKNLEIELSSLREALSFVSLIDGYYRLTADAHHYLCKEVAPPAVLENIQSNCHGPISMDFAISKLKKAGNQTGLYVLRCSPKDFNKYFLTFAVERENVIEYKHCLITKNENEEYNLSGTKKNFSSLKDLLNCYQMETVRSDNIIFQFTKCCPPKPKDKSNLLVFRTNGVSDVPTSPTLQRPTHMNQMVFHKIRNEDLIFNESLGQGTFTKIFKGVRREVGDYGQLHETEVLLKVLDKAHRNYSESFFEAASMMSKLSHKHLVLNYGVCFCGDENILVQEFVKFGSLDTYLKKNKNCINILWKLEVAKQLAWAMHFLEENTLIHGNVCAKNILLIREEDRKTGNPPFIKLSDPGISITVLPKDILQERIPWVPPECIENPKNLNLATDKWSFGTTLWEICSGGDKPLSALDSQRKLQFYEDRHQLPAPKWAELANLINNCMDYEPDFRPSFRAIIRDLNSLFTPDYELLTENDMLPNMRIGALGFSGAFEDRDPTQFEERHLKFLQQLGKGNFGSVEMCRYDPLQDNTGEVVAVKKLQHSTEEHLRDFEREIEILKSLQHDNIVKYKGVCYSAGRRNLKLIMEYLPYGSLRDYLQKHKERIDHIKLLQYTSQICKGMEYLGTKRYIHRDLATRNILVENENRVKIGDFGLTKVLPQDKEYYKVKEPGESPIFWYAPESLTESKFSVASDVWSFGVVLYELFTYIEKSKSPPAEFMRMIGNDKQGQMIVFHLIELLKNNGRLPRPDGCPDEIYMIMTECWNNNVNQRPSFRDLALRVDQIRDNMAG
# [16] = tested on: locally advanced or metastatic NSCLC after failure of at least one chemotherapy regimen; settings: erlotinib 150 mg orally once daily; cited from earlier work
# [17] = tested on: locally advanced or metastatic NSCLC; settings: maintenance, cited from earlier work
# [18] = tested on: locally advanced, unresectable or metastatic pancreatic cancer; settings: 100 mg cohort, erlotinib arm = plus gemcitabine, comparator gemcitabine alone, cited from earlier work; for progression free survival: p=0.006; for survival: p=0.028
# [19] = biological target: PDGFR-β (Homo sapiens, UniProt P09619); settings: in vitro; cited from earlier work
# Chain of PDGFR-β (P09619 33-1106, species assumed): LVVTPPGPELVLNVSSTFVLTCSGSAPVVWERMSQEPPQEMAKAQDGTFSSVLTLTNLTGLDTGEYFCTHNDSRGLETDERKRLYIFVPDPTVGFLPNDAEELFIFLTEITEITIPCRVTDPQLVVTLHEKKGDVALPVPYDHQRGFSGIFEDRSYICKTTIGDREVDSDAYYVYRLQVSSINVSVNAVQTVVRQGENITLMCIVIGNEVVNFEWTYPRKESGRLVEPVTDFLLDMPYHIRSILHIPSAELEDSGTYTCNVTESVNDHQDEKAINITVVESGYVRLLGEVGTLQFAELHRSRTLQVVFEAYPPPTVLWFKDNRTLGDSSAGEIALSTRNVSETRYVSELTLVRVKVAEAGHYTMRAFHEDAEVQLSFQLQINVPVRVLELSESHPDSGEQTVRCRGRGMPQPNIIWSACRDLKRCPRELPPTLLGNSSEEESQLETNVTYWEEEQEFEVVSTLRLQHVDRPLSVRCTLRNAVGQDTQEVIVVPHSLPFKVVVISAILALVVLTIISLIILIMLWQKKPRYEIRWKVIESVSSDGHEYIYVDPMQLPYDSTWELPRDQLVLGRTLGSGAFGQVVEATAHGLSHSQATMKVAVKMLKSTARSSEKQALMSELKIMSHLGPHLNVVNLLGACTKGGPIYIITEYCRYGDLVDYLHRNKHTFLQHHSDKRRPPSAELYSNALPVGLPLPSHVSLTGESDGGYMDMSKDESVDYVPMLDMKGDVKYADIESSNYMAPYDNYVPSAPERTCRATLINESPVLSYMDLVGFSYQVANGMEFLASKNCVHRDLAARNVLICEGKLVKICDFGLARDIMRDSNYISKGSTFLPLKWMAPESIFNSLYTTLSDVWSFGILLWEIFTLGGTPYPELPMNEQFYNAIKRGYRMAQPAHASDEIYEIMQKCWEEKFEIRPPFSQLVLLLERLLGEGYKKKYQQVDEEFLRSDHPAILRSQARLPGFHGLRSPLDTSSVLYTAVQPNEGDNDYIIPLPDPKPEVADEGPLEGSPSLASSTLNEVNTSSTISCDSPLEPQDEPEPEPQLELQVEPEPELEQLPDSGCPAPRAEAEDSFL
# [20] = biological target: T1, VEGFR-2 (Mus musculus, UniProt P35918); settings: in vivo, cited from earlier work
# T1 construct: from tissue; host or cells: mouse lungs (in vivo)
# T1 sequence (P35918 20-1345): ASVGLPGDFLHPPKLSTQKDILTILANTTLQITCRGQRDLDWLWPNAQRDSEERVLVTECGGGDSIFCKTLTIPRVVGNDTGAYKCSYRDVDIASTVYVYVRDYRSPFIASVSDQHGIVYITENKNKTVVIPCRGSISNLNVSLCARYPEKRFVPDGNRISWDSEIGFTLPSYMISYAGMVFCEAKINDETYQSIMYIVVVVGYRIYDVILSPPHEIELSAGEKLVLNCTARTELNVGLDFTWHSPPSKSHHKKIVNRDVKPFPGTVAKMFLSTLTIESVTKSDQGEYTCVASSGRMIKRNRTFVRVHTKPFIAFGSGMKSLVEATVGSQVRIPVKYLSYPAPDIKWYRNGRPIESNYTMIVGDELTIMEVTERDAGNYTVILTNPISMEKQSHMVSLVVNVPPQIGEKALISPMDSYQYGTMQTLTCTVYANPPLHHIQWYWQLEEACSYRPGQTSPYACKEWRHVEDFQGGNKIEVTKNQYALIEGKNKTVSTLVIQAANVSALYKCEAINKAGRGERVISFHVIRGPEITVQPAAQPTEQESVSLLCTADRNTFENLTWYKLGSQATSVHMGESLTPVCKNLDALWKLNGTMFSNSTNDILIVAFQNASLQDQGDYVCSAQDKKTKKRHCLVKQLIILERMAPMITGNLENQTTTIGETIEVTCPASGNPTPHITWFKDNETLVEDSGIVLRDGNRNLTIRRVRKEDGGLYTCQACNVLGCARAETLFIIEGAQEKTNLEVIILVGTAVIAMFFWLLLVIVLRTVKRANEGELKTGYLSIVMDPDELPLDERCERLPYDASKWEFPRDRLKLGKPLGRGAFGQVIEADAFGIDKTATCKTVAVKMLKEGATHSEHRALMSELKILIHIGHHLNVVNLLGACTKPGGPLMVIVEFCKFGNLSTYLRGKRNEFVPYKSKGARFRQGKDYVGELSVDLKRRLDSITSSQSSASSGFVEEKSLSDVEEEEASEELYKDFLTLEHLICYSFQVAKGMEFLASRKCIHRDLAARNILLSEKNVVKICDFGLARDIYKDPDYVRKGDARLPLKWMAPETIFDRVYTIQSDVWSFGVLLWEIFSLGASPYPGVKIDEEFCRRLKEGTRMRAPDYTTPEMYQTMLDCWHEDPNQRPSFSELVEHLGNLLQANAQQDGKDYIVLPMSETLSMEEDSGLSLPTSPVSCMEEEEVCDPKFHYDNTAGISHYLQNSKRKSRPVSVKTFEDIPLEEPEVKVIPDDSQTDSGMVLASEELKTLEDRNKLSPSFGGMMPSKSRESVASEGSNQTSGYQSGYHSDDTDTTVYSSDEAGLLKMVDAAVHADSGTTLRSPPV
# [21] = tested on: angiogenesis; settings: mouse model; cited from earlier work
# [22] = tested on: human tumor xenografts; settings: mice; cited from earlier work
# [23] = tested on: renal cell carcinoma cell lines; settings: cited from earlier work
# [24] = tested on: advanced RCC and poor prognosis; settings: cited from earlier work; for progression-free survival / median overall survival: single agents; for progression-free survival: P=0.0001; for median overall survival: P=0.0078
# [25] = tested on: RCC and poor prognosis; settings: cited from earlier work
# [26] = biological target: VEGFR-2 (Homo sapiens, UniProt P35968); settings: in vitro; cited from earlier work
# Chain of VEGFR-2 (Homo sapiens, UniProt P35968) (P35968 20-1356, species assumed): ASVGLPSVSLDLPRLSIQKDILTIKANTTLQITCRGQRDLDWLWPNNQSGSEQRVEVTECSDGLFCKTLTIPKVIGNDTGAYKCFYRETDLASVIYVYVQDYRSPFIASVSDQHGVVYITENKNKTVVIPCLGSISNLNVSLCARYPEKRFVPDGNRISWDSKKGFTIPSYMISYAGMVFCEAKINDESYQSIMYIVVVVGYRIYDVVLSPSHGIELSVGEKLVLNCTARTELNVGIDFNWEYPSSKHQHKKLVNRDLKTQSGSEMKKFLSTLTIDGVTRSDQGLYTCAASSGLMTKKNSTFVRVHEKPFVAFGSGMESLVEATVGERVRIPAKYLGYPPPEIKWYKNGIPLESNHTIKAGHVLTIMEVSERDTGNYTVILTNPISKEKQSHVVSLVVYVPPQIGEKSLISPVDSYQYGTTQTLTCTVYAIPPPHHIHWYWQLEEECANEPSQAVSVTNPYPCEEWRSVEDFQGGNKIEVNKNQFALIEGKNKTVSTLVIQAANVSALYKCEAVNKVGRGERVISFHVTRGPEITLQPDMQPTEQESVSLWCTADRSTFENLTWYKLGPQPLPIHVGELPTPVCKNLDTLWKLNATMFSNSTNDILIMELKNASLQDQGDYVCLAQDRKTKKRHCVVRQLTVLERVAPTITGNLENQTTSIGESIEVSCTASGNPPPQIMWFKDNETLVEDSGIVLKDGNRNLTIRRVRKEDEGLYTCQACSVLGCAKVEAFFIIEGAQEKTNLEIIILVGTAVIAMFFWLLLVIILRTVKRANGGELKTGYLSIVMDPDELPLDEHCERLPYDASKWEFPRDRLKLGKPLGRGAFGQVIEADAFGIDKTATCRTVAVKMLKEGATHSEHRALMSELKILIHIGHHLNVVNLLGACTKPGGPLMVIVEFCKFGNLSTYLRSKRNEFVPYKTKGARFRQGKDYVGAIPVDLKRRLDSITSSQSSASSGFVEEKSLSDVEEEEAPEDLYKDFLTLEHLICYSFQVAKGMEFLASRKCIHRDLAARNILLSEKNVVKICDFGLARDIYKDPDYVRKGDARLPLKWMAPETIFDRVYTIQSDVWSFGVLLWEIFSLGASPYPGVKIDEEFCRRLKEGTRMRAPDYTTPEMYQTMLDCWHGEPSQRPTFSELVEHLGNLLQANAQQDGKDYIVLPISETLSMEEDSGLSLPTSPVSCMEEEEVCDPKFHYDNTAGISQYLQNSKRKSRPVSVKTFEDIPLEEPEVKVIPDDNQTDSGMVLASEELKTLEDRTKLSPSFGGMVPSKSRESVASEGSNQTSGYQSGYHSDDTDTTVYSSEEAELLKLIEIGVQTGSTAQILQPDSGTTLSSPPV
# [27] = tested on: renal cancer; settings: bevacizumab arm = with interferon-alpha; comparator interferon-alpha alone; cited from earlier work
# [28] = 140 subjects with elevated LDH, log-rank p<0.005
# [29] = 264 subjects with normal LDH, log-rank p=0.514
compound,measurement,setting,value
"CNC(=O)c1ccccc1Sc1ccc2c(/C=C/c3ccccn3)n[nH]c2c1 [Axitinib, N-Methyl-2-[[3-[(E)-2-pyridin-2-ylethenyl]-1H-indazol-6-yl]sulfanyl]benzamide]",growth of breast cancer,[1],significantly inhibit growth
same,response,[2],good response
same,survival rates over Gemcitabine alone,[3],no evidence of improved survival rates
same,progression-free survival compared to sorafenib,[4],significantly extended progression-free survival
Cn1c(=O)n(-c2ccc(C(C)(C)C#N)cc2)c2c3cc(-c4cnc5ccccc5c4)ccc3ncc21 [BEZ235],effectiveness at slowing tumor growth in tumors with high levels of hypoxia (HCT116) compared with low levels (786O),[5],not found to work better
same,mTORC1 kinase activity,[6],blocks
same,mTORC2 kinase activity,[7],blocks
same,levels of phosphorylated RPS6,[8],significantly reduce
"Clc1ccc(Nc2nnc(Cc3ccncc3)c3ccccc23)cc1 [PTK787, N-(4-chlorophenyl)-4-(pyridin-4-ylmethyl)phthalazin-1-amine]",tumor growth as compared to control,"[9]; 50 mg/kg 5×/week p.o., p=0.1209",reduced the growth of the tumor
same,tumor burden as compared to control,"[10]; 50 mg/kg 5×/week p.o., p=0.7805",no difference in tumor burden
same,tumor burden as compared to control,"[10]; Erlotinib section, FIG. 5B, 1×/week p.o., p=0.8548",no difference in tumor burden
same,tumor burden as compared to control,"[10]; XL765 section, FIG. 4B, 30 mg/kg 5×/week p.o., p=0.7682",no difference in tumor burden
same,effectiveness at slowing tumor growth in tumors with high levels of hypoxia (HCT116) compared with low levels (786O),[5],more effective
same,PFS HR,"[11]; CONFIRM 1 - High LDH, N 316, P 0.002",0.61
same,PFS HR,"[11]; CONFIRM 1 - Low LDH, N 852, P 0.43",0.93
same,PFS HR,"[12]; CONFIRM 2 - High LDH, N 250",0.63
same,PFS HR,"[12]; CONFIRM 2 - Low LDH, N 605, P 0.58",0.95
same,PFS HR,"[13]; All CONFIRM 1 & 2 High LDH Patients, N 566",0.62
same,PFS HR,"[13]; All CONFIRM 1 & 2 Patients, N 2023",0.82
same,duration of stable disease,[14],2-6 months
same,patients with stable disease as the best response,[14]; six of eleven patients,55%
COc1cc(Nc2nc3ccccc3nc2NS(=O)(=O)c2ccc(NC(=O)c3ccc(C)c(OC)c3)cc2)cc(OC)c1 [XL765],tumor growth rate as compared to control,"[9]; 30 mg/kg 5×/week p.o., p=0.009",reduced the growth rate of the tumor
same,effectiveness at slowing tumor growth in tumors with high levels of hypoxia (HCT116) compared with low levels (786O),[5],more effective
C#Cc1cccc(Nc2ncnc3cc(OCCOC)c(OCCOC)cc23)c1 [erlotinib],tumor growth rate as compared to control,"[9]; 1×/week p.o., doses 40, 25, 10 mg/kg in the 3rd table, p=0.0224",reduced the growth rate of the tumor
same,effectiveness at slowing tumor growth in tumors with high levels of hypoxia (HCT116) compared with low levels (786O),[5],more effective
same,JAK2V617F activity,[15],potent inhibitor
same,progression free survival,[16],9.9 weeks
same,rate of one year survival,[16],31.2%
same,"response duration, median",[16],34.3 weeks
same,survival,[16],6.7 months
same,tumor response,[16],8.9%
same,progression free survival,[17]; erlotinib 150 mg orally once daily,2.8 months
same,overall survival,[17]; difference not statistically significant,12 weeks
same,progression free survival,[18],3.8 months
same,survival,[18],6.4 months
Nc1ccn([C@@H]2O[C@H](CO)[C@@H](O)C2(F)F)c(=O)n1 [gemcitabine],progression free survival,[18],3.5 months
same,survival,[18],6.0 months
Cc1ccc(Nc2nccc(N(C)c3ccc4c(C)n(C)nc4c3)n2)cc1S(N)(=O)=O.Cl [pazopanib],ligand-induced autophosphorylation of PDGFR-β,[19],inhibited
same,VEGF-induced VEGFR-2 phosphorylation,[20]; mouse lungs,inhibited
same,angiogenesis,[21],inhibited
same,growth of some human tumor xenografts,[22],inhibited
CNC(=O)c1cc(Oc2ccc(NC(=O)Nc3ccc(Cl)c(C(F)(F)F)c3)cc2)ccn1 [sorafenib],effectiveness at slowing tumor growth in tumors with high levels of hypoxia (HCT116) compared with low levels (786O),[5],not found to work better
CCN(CC)CCNC(=O)c1c(C)[nH]c(/C=C2\C(=O)Nc3ccc(F)cc32)c1C [sutent],effectiveness at slowing tumor growth in tumors with high levels of hypoxia (HCT116) compared with low levels (786O),[5],not found to work better
CO[C@H]1C[C@@H]2CC[C@@H](C)[C@@](O)(O2)C(=O)C(=O)N2CCCC[C@H]2C(=O)O[C@H]([C@H](C)C[C@@H]2CC[C@@H](OC(=O)C(C)(CO)CO)[C@H](OC)C2)CC(=O)[C@H](C)/C=C(\C)[C@@H](O)[C@@H](OC)C(=O)[C@H](C)C[C@H](C)/C=C/C=C/C=C/1C [temsirolimus],effectiveness at slowing tumor growth in tumors with high levels of hypoxia (HCT116) compared with low levels (786O),[5],not found to work better
same,activity of mTOR,[23],inhibited
same,"levels of HIF-1 and HIF-2 alpha, and vascular endothelial growth factor",[23],reduced levels
same,overall survival compared with interferon-alpha alone,[24]; combination of temsirolimus and interferon-alpha,did not result in a significant increase in overall survival
same,increase in median overall survival compared to interferon-alpha,"[24]; human, in vivo",49%
same,progression-free survival,[24],5.5 months
same,median overall survival,[24],10.9 months
same,survival,[25]; [28],6.9 months
same,survival,[25]; [29],11.7 months
Cediranib,VEGF-induced VEGFR-2 phosphorylation,[20]; mouse,inhibited
same,angiogenesis,[21],inhibited
same,growth of some human tumor xenografts,[22],inhibited
same,ligand-induced autophosphorylation of VEGFR-2,[26],inhibited
interferon-alpha,patients with decreased tumor size,[27],12%
same,progression-free survival,[24],3.1 months
same,median overall survival,[24],7.3 months
same,survival,[25]; [28],4.2 months
same,survival,[25]; [29],10.4 months
panitumumab: Anti-EGFR,effectiveness at slowing tumor growth in tumors with high levels of hypoxia (HCT116) compared with low levels (786O),[5],not found to work better
